The test system of assay [1] is patients diagnosed with idiopathic central sleep apnea. Briefly: Hospital based clinical trial of zolpidem: follow-up polysomnogram and Epworth Sleepiness Scale. It counts as in vivo, human. The method, then:
Idiopathic central sleep apnea was defined by central apnea and hypopnea index (CAHI)≧10 events per hour of sleep, and obstructive apnea/hypopnea index ≦5 events per hour of sleep. An apnea was defined as a cessation or reduction in peak oronasal airflow≧70% of baseline, lasting ≧15 s. Hypopnea was defined as a reduction in peak oronasal airflow ≧50%, ≧70% of baseline for ≧15 s, along with a ≧4% drop in SpO2 relative to pre-event baseline value. The apnea/hypopnea index was calculated for all events relative to total sleep time and documented separately for central and obstructive events. Central apneas and hypopneas comprised the central and obstructive apneas and hypopneas plus mixed apneas and hypopneas comprised the obstructive apnea-hypopnea index (OAHI). Exclusion criteria comprise such as clinical or echocardiographic diagnosis of systolic heart failure, diastolic cardiac dysfunction, or a history of transient ischemic attack or stroke. Those with a typical pattern of Cheyne Stokes respiration during sleep were also excluded. Patients with obstructive sleep apnea with an Apnea-Hypopnea Index of (AHI) ≧5 events per hour prior to continuous positive airway pressure device (CPAP) use, or a history of restless legs syndrome/periodic leg movements were also excluded. […] Patients with hypercapnic lung disease or those with obesity hypoventilation syndrome were also excluded. Subjects were given the Epworth Sleepiness Scale (ESS), and a physical exam followed by an 8-h diagnostic polysomnogram (PSG). […] Outpatient monitoring was conducted every four weeks to assess patients for side effects and for evaluation of daytime sleepiness, using the ESS. […] Nocturnal polysomnographic assessment using the Grass Aurora system was performed in a standard way consisting of an electroencephalogram (EEG), an electrooculogram (EOG), a submental electromyogram (EMG), an anterior tibialis EMG, and an electrocardiogram (ECG) (Rechtschaffen A, Kales A. A manual of standardized terminology, techniques and scoring system for sleep stages in human subjects. Washington D.C.: US Government Printing Office. National Institute of Health Publication; 1968). Nasal-oral airflow was measured using thermocouples. Abdominal and thoracic respiratory movements were recorded with respiratory effort belts using piezoelectric crystal sensors. Transcutaneous oxyhemoglobin saturation (SpO2) was monitored with finger pulse oximetry. A recording of sleep position was performed using video monitoring and snoring was recorded using a snore sensor. An experienced sleep physician, blinded to the study protocol, scored sleep recordings. Sleep architecture was analyzed according to standardized way (Rechtschaffen A, Kales A. A manual of standardized terminology, techniques and scoring system for sleep stages in human subjects. Washington D.C.: US Government Printing Office. National Institute of Health Publication; 1968). Unstimulated saliva samples were collected and biomarker levels measured in the morning prior to beginning and after 150 days of study. Ten minutes prior to collection of unstimulated saliva samples, individuals were asked to rinse orally with water. At the time of sample collection, study members were asked to relax for 5-15 minutes. They were then seated in a bent forward position in an ordinary chair and asked to put their tongues on the lingual surfaces of the upper incisors and allow the saliva to drip into sterile plastic (glass) tubes treated with […] of 2% sodium azide solution to prevent microbial decomposition of saliva. The tubes were held to the lower lip for 10 minutes resulting in a collection of 1-5 ml of saliva per individual.

Assay [2] relates to patients with idiopathic central sleep apnea. Briefly: Salivary biomarker levels before and after zolpidem treatment (commercial kits, NMR). It counts as in vivo, human. The conditions noted are these: unstimulated saliva, morning, after 150 days of study, mean. The method, then:
Idiopathic central sleep apnea was defined by central apnea and hypopnea index (CAHI)≧10 events per hour of sleep, and obstructive apnea/hypopnea index ≦5 events per hour of sleep. An apnea was defined as a cessation or reduction in peak oronasal airflow≧70% of baseline, lasting ≧15 s. Hypopnea was defined as a reduction in peak oronasal airflow ≧50%, ≧70% of baseline for ≧15 s, along with a ≧4% drop in SpO2 relative to pre-event baseline value. The apnea/hypopnea index was calculated for all events relative to total sleep time and documented separately for central and obstructive events. Central apneas and hypopneas comprised the central and obstructive apneas and hypopneas plus mixed apneas and hypopneas comprised the obstructive apnea-hypopnea index (OAHI). Exclusion criteria comprise such as clinical or echocardiographic diagnosis of systolic heart failure, diastolic cardiac dysfunction, or a history of transient ischemic attack or stroke. Those with a typical pattern of Cheyne Stokes respiration during sleep were also excluded. Patients with obstructive sleep apnea with an Apnea-Hypopnea Index of (AHI) ≧5 events per hour prior to continuous positive airway pressure device (CPAP) use, or a history of restless legs syndrome/periodic leg movements were also excluded. Patients with prior use of sedative agents such as zolpidem, acetazolamide, theophylline, medroxyprogesterone, or any opiate, were also excluded from the study to exclude comparative bias when evaluating subjective response to zolpidem. Patients with hypercapnic lung disease or those with obesity hypoventilation syndrome were also excluded. Subjects were given the Epworth Sleepiness Scale (ESS), and a physical exam followed by an 8-h diagnostic polysomnogram (PSG). […] Outpatient monitoring was conducted every four weeks to assess patients for side effects and for evaluation of daytime sleepiness, using the ESS. […] Nocturnal polysomnographic assessment using the Grass Aurora system was performed in a standard way consisting of an electroencephalogram (EEG), an electrooculogram (EOG), a submental electromyogram (EMG), an anterior tibialis EMG, and an electrocardiogram (ECG) (Rechtschaffen A, Kales A. A manual of standardized terminology, techniques and scoring system for sleep stages in human subjects. Washington D.C.: US Government Printing Office. National Institute of Health Publication; 1968). Nasal-oral airflow was measured using thermocouples. Abdominal and thoracic respiratory movements were recorded with respiratory effort belts using piezoelectric crystal sensors. Transcutaneous oxyhemoglobin saturation (SpO2) was monitored with finger pulse oximetry. A recording of sleep position was performed using video monitoring and snoring was recorded using a snore sensor. An experienced sleep physician, blinded to the study protocol, scored sleep recordings. Sleep architecture was analyzed according to standardized way (Rechtschaffen A, Kales A. A manual of standardized terminology, techniques and scoring system for sleep stages in human subjects. Washington D.C.: US Government Printing Office. National Institute of Health Publication; 1968). Unstimulated saliva samples were collected and biomarker levels measured in the morning prior to beginning and after 150 days of study. Ten minutes prior to collection of unstimulated saliva samples, individuals were asked to rinse orally with water. At the time of sample collection, study members were asked to relax for 5-15 minutes. They were then seated in a bent forward position in an ordinary chair and asked to put their tongues on the lingual surfaces of the upper incisors and allow the saliva to drip into sterile plastic (glass) tubes treated with […] of 2% sodium azide solution to prevent microbial decomposition of saliva. The tubes were held to the lower lip for 10 minutes resulting in a collection of 1-5 ml of saliva per individual. […]

[3] abbreviates: follow-up polysomnogram vs before treatment.

Results on one compound are retold here after patent US20180003723A1, “METHODS AND SYSTEMS FOR […] DISORDERS” (OASIS DIAGNOSTICS CORPORATION, priority 2014, published 2018).

Consider `Cc1ccc(-c2nc3ccc(C)cn3c2CC(=O)N(C)C)cc1` [zolpidem], for which the “Excessive daytime sleepiness, measured by the Epworth Sleepiness Scale (ESS), change” value in assay [1] (after vs before treatment) was “decreased”. Besides, in assay [1] (setting [3]), the “central AHI (CAHI), change on follow-up polysomnogram” value is “significantly decreased”; the “sleep latency, change” value is given as “decreased”; the “stage 1, 3, and 4 sleep percentages, change” value is on record as “decreased”; the “stage 2 percentages, change” value is listed as “increased”. The “total number of arousals per hour, change with treatment use” value in assay [1] (setting [3]) is on record as “decreased”. The “Apnea hypopnea, After” value in assay [1] (mean, 10 patients, zolpidem 10 mg orally each night, repeat PSG six to ten weeks after initiation, Before 32.6, P 0.0001) is 12.6. Further, the “Epworth sleepiness score, After” value in assay [1] (mean, zolpidem 10 mg orally each night, Before 13.7, P 0.0001) is 6.5. Also, the “% TST stage 3 and 4, After” value in assay [1] (mean, zolpidem 10 mg orally each night, repeat PSG six to ten weeks, Before 1.3, P 0.05) amounted to 0.8%. The “Total sleep time, After” value in assay [1] (mean, zolpidem 10 mg orally each night, repeat PSG six to ten weeks, Before 4.6, P 0.005) worked out at 6.3 h. Moreover, in assay [1] (mean, zolpidem 10 mg orally each night, repeat PSG six to ten weeks, Before 10.4, P 0.05), the “% TST REM, After” value amounted to 14.5%. The “% TST stage 1, After” value in assay [1] (mean, zolpidem 10 mg orally each night, repeat PSG six to ten weeks, Before 34.6, P 0.05) is on record as 21.3%. Moreover, the “Salivary Arginine, After Treatment” value in assay [2] (Before Treatment 0.56, P 0.001) is 0.45 µmol/mL. The “Salivary Creatine, After Treatment” value in assay [2] (Before Treatment 0.64, P 0.001) came to 0.47 µmol/mL. Also, the “Salivary Tyrosine, After Treatment” value in assay [2] (Before Treatment 0.67, P 0.005) is 0.54 µmol/mL. In assay [2] (Before Treatment 13.68, P 0.0001), the “Salivary CgA, After Treatment” value is reported as 4.23 pmol/mg protein. In assay [2] (Before Treatment 34.4, P 0.0001), the “Salivary Dihomo-linolenate, After Treatment” value was 27.1 µmol/mL. Besides, in assay [2] (Before Treatment 36.5, P 0.0001), the “Salivary Linolenate, After Treatment” value was 21.2 µmol/mL. In addition, the “Salivary 3-methyl-2-oxobutyrate, After Treatment” value in assay [2] (Before Treatment 61.2, P 0.005) is 54.1 µmol/mL. In addition, the “Salivary Annexin 1, After Treatment” value in assay [2] (Before Treatment 72.1, P 0.0001) was found to be 56.3 ng/mL. In addition, the “Salivary BDNF, After Treatment” value in assay [2] (Before Treatment 345.8, P 0.0001) came out at 234.5 pg/mL. In assay [2] (Before Treatment 2134.9, P 0.0001), the “Salivary B-endorphin, After Treatment” value is 1235.3 pg/mL.
